We go through 22 molecules from PubChem BioAssay (NCI).

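Interpolation was linear, between the two tested concentrations surrounding the appropriate level; five concentrations were tested over 48 hours in 96-well plates. GI50 is the concentration that inhibits growth by half. TGI is the concentration that stops growth completely.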

Test systems include A498 renal; CCRF-CEM leukemia; HOP-62 NSCLC; HT29 colon; MALME-3M melanoma; NCI-H23 lung; RPMI-8226 leukemia; SNB-19 CNS; MDA-MB-435; MDA-N.
Assay in all cases: growth of human tumour cells (NCI), 48 h

On to `O=C(O)c1cc2sc(C(=O)O)cc2s1`, for which the TGI with A498 renal, with CCRF-CEM leukemia, in the test with HOP-62 NSCLC, in the test on HT29 colon, in the test on MALME-3M melanoma and in the test on NCI-H23 lung was more than 100 µM in each case. In addition, the TGI in the test with RPMI-8226 leukemia and with SNB-19 CNS was more than 100 µM in each case.

With `C/C(=N\Nc1nc2ccccc2[nH]1)c1ccc2ccccc2n1`, the TGI with CCRF-CEM leukemia is 3.87 µM; in the test on HOP-62 NSCLC, 8.12 µM; in the test on MALME-3M melanoma it was 7.85 µM; in the test on MDA-MB-435 it was 17 µM; with MDA-N it was 14.8 µM; in the test on NCI-H23 lung it was 16.1 µM. Also, the TGI is 3.15 µM in the test on RPMI-8226 leukemia and 15.9 µM in the test with SNB-19 CNS.

As to `Cc1csc(CP(=O)(OC(C)C)OC(C)C)n1`, the TGI with A498 renal, in the test with HOP-62 NSCLC, with HT29 colon, in the test on MALME-3M melanoma, in the test with MDA-MB-435 and with MDA-N was more than 100 µM throughout. Besides, the TGI in the test on NCI-H23 lung, in the test on RPMI-8226 leukemia and in the test on SNB-19 CNS was more than 100 µM each time.

With `O=[N+]([O-])c1ccc(N/N=C\c2ccc(O)cc2O)nc1`, the GI50 is more than 100 µM with A498 renal; 4.34 µM with HOP-62 NSCLC; 5.32 µM with HT29 colon; 2.61 µM with MALME-3M melanoma; 3.14 µM in the test on MDA-MB-435; 3.39 µM in the test with NCI-H23 lung. The GI50 in the test with RPMI-8226 leukemia is 4.21 µM; with SNB-19 CNS, 3.24 µM. Also, the TGI in the test with A498 renal was more than 100 µM; in the test with HOP-62 NSCLC, 45 µM; with HT29 colon it was more than 100 µM; in the test with MALME-3M melanoma, more than 100 µM; with MDA-MB-435 it was more than 100 µM; in the test with NCI-H23 lung, more than 100 µM. Besides, the TGI with RPMI-8226 leukemia and with SNB-19 CNS was more than 100 µM each time.

Consider `COC(=O)c1cc(OCc2cc(OCc3ccc(Br)cc3)cc(OCc3ccc(Br)cc3)c2)cc(OCc2cc(OCc3ccc(Br)cc3)cc(OCc3ccc(Br)cc3)c2)c1`, for which the TGI in the test with A498 renal, in the test with HOP-62 NSCLC, in the test with MALME-3M melanoma, in the test on MDA-MB-435, in the test with MDA-N and in the test with NCI-H23 lung was more than 100 µM in each case. For the same molecule, the TGI in the test with RPMI-8226 leukemia and in the test on SNB-19 CNS was more than 100 µM throughout.

In the case of `C=C(C)[C@H]1C=C[C@@H](OC(C)=O)[C@@]2(COC(C)=O)[C@H](OC(=O)CCC)[C@H]3[C@@H](OC(C)=O)[C@@H](C)C[C@]3(O)C(=O)[C@@](C)(OC(C)=O)[C@H]12`, the TGI with A498 renal was more than 100 µM; with CCRF-CEM leukemia, more than 100 µM; with HT29 colon, more than 100 µM; in the test with MALME-3M melanoma, more than 100 µM; in the test with MDA-MB-435 it was 44.2 µM; in the test on NCI-H23 lung, more than 100 µM. Besides, the results for the TGI in the test with RPMI-8226 leukemia and with SNB-19 CNS were 66.7 µM and more than 100 µM, respectively.

With `O=c1oc2ccc([N+](=O)[O-])cc2cc1-c1csc(-c2ccccc2)n1`, the TGI with CCRF-CEM leukemia, in the test on HOP-62 NSCLC, in the test with HT29 colon, with MALME-3M melanoma, in the test with MDA-MB-435 and in the test on MDA-N was more than 100 µM in each case. Moreover, the TGI with RPMI-8226 leukemia and with SNB-19 CNS was more than 100 µM each time.

As to `CC1=NN(c2cccc(S(=O)(=O)O)c2)C2(C1)SCC(=O)N2c1nc2ccccc2s1` (stereo unspecified), the TGI with A498 renal, in the test with HOP-62 NSCLC, in the test on HT29 colon, in the test on MALME-3M melanoma, with MDA-MB-435 and in the test with MDA-N was more than 100 µM each time. The TGI in the test on NCI-H23 lung, in the test with RPMI-8226 leukemia and with SNB-19 CNS was more than 100 µM each time.

Consider `O=CC1C(=O)Nc2nc3ccccc3n2C1c1ccccc1` (stereo unspecified), for which the TGI in the test on A498 renal was determined as 28.8 µM; in the test with CCRF-CEM leukemia it was 75.2 µM; in the test with HOP-62 NSCLC it was 20.2 µM; in the test with HT29 colon it was 41.2 µM; in the test on MALME-3M melanoma it was 53.7 µM; in the test on MDA-MB-435, 44.8 µM. The figures for the TGI with NCI-H23 lung and with RPMI-8226 leukemia were 53.5 µM and 70.4 µM, respectively.

Consider `CCCCCCCCC[C@@H]1C[C@H](O)[C@H](Cc2ccccc2)N1C(=O)OC(C)(C)C`, for which the TGI turned out to be 33.7 µM in the test on A498 renal; 55.9 µM in the test with CCRF-CEM leukemia; 34.9 µM with HOP-62 NSCLC; 31.5 µM with HT29 colon; 34.5 µM in the test with MALME-3M melanoma; 31.6 µM with NCI-H23 lung. Also, the TGI was 63.3 µM in the test on RPMI-8226 leukemia and 33.5 µM with SNB-19 CNS.

Turning to `O=C1N(c2ccccc2)N=C2c3ccncc3C3=NN(c4ccccc4)C(=O)C123` (stereo unspecified), the TGI in the test on A498 renal, in the test on CCRF-CEM leukemia, in the test with HOP-62 NSCLC, in the test with HT29 colon, with MALME-3M melanoma and in the test with MDA-MB-435 was more than 100 µM throughout. Moreover, the TGI in the test with NCI-H23 lung, in the test with RPMI-8226 leukemia and in the test on SNB-19 CNS was more than 100 µM in each case.

Turning to `CSc1nc(NC2OC(CO)C(O)C(O)C2O)c(N)c(=O)[nH]1` (stereo unspecified), the TGI with A498 renal, with CCRF-CEM leukemia, in the test on HOP-62 NSCLC, with HT29 colon, in the test on MALME-3M melanoma and in the test on NCI-H23 lung was more than 100 µM throughout. The TGI with RPMI-8226 leukemia and in the test on SNB-19 CNS was more than 100 µM in each case.

For `COc1ccc([C@H]2C=C(c3cc(F)c(Cl)cc3Cl)N=c3s/c(=C\c4ccc(-c5ccc(Cl)cc5Cl)o4)c(=O)n32)cc1`, the TGI with A498 renal was 6.58 µM; in the test on HOP-62 NSCLC, 45.3 µM; in the test with HT29 colon, more than 100 µM; in the test on MALME-3M melanoma it was more than 100 µM; in the test with MDA-MB-435, more than 100 µM; in the test on MDA-N, more than 100 µM. Besides, the TGI in the test on NCI-H23 lung, in the test with RPMI-8226 leukemia and in the test with SNB-19 CNS was more than 100 µM throughout.

Take `O=[N+]([O-])c1cnccc1-n1nnc2ccccc21`: the TGI with A498 renal was 92.1 µM; with CCRF-CEM leukemia, more than 86.5 µM; in the test with HOP-62 NSCLC, 59.3 µM; with HT29 colon it was more than 100 µM; with MALME-3M melanoma, 45.5 µM; in the test with NCI-H23 lung, more than 62 µM. The TGI in the test on RPMI-8226 leukemia and in the test on SNB-19 CNS was more than 100 µM throughout.

Consider `O=c1n(CC2CO2)c2ccccc2n1CC1CS1` (stereo unspecified), for which the TGI in the test on CCRF-CEM leukemia, in the test with HOP-62 NSCLC, in the test with MALME-3M melanoma, in the test with RPMI-8226 leukemia and with SNB-19 CNS was more than 100 µM in each case.

For the molecule `COc1ccc(Nc2cnc3cc(N)ccc3n2)cc1OC`, the TGI with CCRF-CEM leukemia was more than 100 µM; in the test with HOP-62 NSCLC, more than 100 µM; in the test with HT29 colon, more than 100 µM; in the test with MALME-3M melanoma it was more than 100 µM; in the test on NCI-H23 lung, more than 100 µM; with RPMI-8226 leukemia, 86.2 µM.

As to `Cc1ccc(S(=O)(=O)N/N=C2/C3CC4CCC2C4C3)cc1` (stereo unspecified), the TGI in the test with A498 renal, in the test with HOP-62 NSCLC, in the test with HT29 colon, with MALME-3M melanoma, in the test with MDA-MB-435 and in the test on MDA-N was more than 100 µM in each case. The TGI in the test with NCI-H23 lung and in the test with RPMI-8226 leukemia was more than 100 µM each time.

Regarding `CCN(CC)C(=O)N1CN(c2ccccc2)C2(CCN(CCCC3(c4ccc(F)cc4)OCCO3)CC2)C1=O`, the TGI with CCRF-CEM leukemia came out at 45.9 µM; in the test with HOP-62 NSCLC it was 18.6 µM; with MALME-3M melanoma, 36.5 µM; in the test with MDA-MB-435, 38.9 µM; with MDA-N, 35.7 µM; in the test with NCI-H23 lung, 36.6 µM. Moreover, the TGI with RPMI-8226 leukemia is 30.1 µM; in the test with SNB-19 CNS, 89.7 µM.

On to `COc1cc(/C=C2\CCCC3=C2N=C2SC=NN2C3c2cc(OC)c(OC)c(OC)c2)cc(OC)c1OC` (stereo unspecified), for which the GI50 with A498 renal was 1.48 µM; in the test on CCRF-CEM leukemia, 3.17 µM; with HT29 colon it was 3.07 µM; in the test with MALME-3M melanoma, 2.99 µM; in the test on MDA-MB-435, 2.04 µM; in the test with SNB-19 CNS, 4.44 µM. For the same molecule, the TGI in the test on A498 renal is 3.89 µM; with CCRF-CEM leukemia, more than 100 µM; with HT29 colon it was 7.41 µM; with MALME-3M melanoma, 7.09 µM; in the test on MDA-MB-435 it was 5.17 µM; with SNB-19 CNS, more than 100 µM.

As for `Cc1cc(NS(=O)(=O)c2ccc(N=Nc3c(Nc4ccccc4)nn(-c4ccc(S(=O)(=O)Nc5ccncn5)cc4)c3C)cc2)no1`, the TGI with CCRF-CEM leukemia, in the test with HOP-62 NSCLC, in the test on HT29 colon, in the test on MALME-3M melanoma, in the test with MDA-MB-435 and in the test on MDA-N was more than 100 µM throughout. Moreover, the TGI with NCI-H23 lung and with SNB-19 CNS was more than 100 µM in each case.

In the case of `CCOC(=O)C(/C=N/C(N)=S)=C(/O)c1ccccc1`, the TGI in the test with A498 renal, in the test on HOP-62 NSCLC, in the test on HT29 colon, in the test on MDA-MB-435, in the test with MDA-N and in the test on NCI-H23 lung was more than 100 µM each time. This molecule also gave a TGI in the test with SNB-19 CNS of more than 100 µM.

Regarding `COc1ccccc1N1C(=O)/C(=C\c2ccccc2)SC1c1cc(OC)c(OC)c(OC)c1` (stereo unspecified), the TGI in the test on A498 renal was more than 100 µM; with HOP-62 NSCLC it was more than 100 µM; in the test with HT29 colon it was more than 100 µM; in the test with MALME-3M melanoma, more than 100 µM; with MDA-MB-435 it was 46.5 µM; in the test with MDA-N it was 48.6 µM. In addition, the TGI in the test with NCI-H23 lung and in the test on SNB-19 CNS was more than 100 µM each time.
